Values quoted from earlier work, collected in paper PMC6882435, “Preparation and study of two kinds of ophthalmic nano-preparations of everolimus” (Drug Delivery, 2019).

Key:
[1] = design: method as in Iwase & Maitani, 2012; settings: raw material at room temperature; ref Iwase & Maitani, 2012
[2] = design: method as in Baspinar et al., 2008; Tedesco-Silva et al., 2019; settings: patients that take the drug (systemic, oral); ref Baspinar et al., 2008; Tedesco-Silva et al., 2019

solubility [1]: about 9.6 μg·mL^−1
SMILES: CO[C@H]1C[C@@H]2CC[C@@H](C)[C@@](O)(O2)C(=O)C(=O)N2CCCC[C@H]2C(=O)O[C@H]([C@H](C)C[C@@H]2CC[C@@H](OCCO)[C@H](OC)C2)CC(=O)[C@H](C)/C=C(\C)[C@@H](O)[C@@H](OC)C(=O)[C@H](C)C[C@H](C)/C=C/C=C/C=C/1C [Everolimus, 4 O-O-(2-hydroxyethyl)-rapamycin]
patients with side effects such as thrombocytopenia and dyslipidemia [2]: about 30%
